This passage reports TGI and GI50 results from PubChem BioAssay (NCI).

Several values for one entry are separate records, joined by “and”; a condition that tells them apart may be missing. Equal entries are not always repeated.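 Five concentrations, 48 hours, 96-well plates. GI50 marks 50% less growth. The concentration for full growth arrest is given as TGI.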

Common to all, as to assay: growth of human tumour cells (NCI), 48 h
Assay [1] relates to HCC-2998 colon.
For assay [2], the system named is HT29 colon.
Assay [3] concerns IGROV1 ovarian.
Assay [4] deals with M14 melanoma.
The test system of assay [5] is NCI-H226 lung.
The subject of assay [6] is NCI-H522 lung.
The test system of assay [7] is OVCAR-3 ovarian.
Assay [8] relates to U251 CNS.
Assay [9] concerns UO-31 renal.
The subject of assay [10] is SNB-75 CNS.

Turning to `CCOC(=O)C1=C(C)NC(C)=C(C(=O)OCCNC(=O)c2ccc(N=[N+]=[N-])cc2)C1c1ccccc1C(F)(F)F` (centres undefined), the TGI in assay [1] was 21.5 µM; in assay [2] it was 21.5 µM; in assay [3] it was 21.5 µM; in [4], 21.5 µM; in [5] it was 21.5 µM; in assay [6], 19.3 µM. Besides, the TGI in [7], in assay [8] and in [9] was 21.5 µM in each case.

Turning to `C[C@@H]1CC[C@H]2[C@@H](C)C(OC/C=C/COC3O[C@@H]4O[C@@]5(C)CC[C@H]6[C@H](C)CC[C@@H]([C@H]3C)[C@@]46OO5)O[C@@H]3O[C@@]4(C)CC[C@@H]1[C@]32OO4` (some centres undefined), the GI50 in assay [1] was 0.0376 µM; in assay [2], less than 0.01 µM; in assay [3], 0.77 µM; in [4], 0.0265 µM; in [5] it was less than 0.0206 µM; in assay [6], 0.0898 µM. Moreover, the values for the GI50 in assay [7], in [8] and in [9] were less than 0.0109 µM, less than 0.01 µM and 0.152 µM, respectively. In addition, the TGI in assay [1] was 12.1 µM; in assay [2], greater than 100 µM; in [3], 38 µM; in assay [4], 19.1 µM; in [5] it was 0.832 µM; in [6], greater than 100 µM. The TGI was 1.07 µM in [7], greater than 20.9 µM in assay [8] and greater than 92.9 µM in assay [9].

`COc1cc(-c2cc(-c3cccs3)c(C#N)c(N3CCOCC3)n2)cc(OC)c1OC`: the GI50 was 21.7 µM in assay [1]; 3.16 µM in assay [2]; 13.7 µM in assay [3]; 20.5 µM in [5]; 10.3 µM in assay [6]; 14.9 µM in [7]. Besides, the GI50 in assay [10] is 10 µM; in [8], 4.94 µM; in assay [9], 5.12 µM. The TGI in [1] is greater than 100 µM; in assay [2], greater than 100 µM; in assay [3] it was greater than 100 µM; in assay [5] it was greater than 100 µM; in assay [6], greater than 100 µM; in assay [7] it was greater than 88.9 µM. The results for the TGI in [10], in assay [8] and in [9] were greater than 63 µM, greater than 100 µM and greater than 100 µM, respectively.

Regarding `CC1NC(C(=O)O)Cc2cc(O)c(O)cc21` (centres undefined), the TGI in [1], in assay [2], in assay [3], in assay [4], in assay [5] and in [6] was greater than 100 µM each time. Further, the TGI in [7], in assay [8] and in [9] was greater than 100 µM throughout.

`O=c1c2cccc(F)c2sc2c(NCCCNCCO)nc3ccccc3c12`: the GI50 is 1.61 µM in assay [1]; 1.51 µM in [2]; 1.23 µM in assay [3]; 1.53 µM in assay [4]; 1.7 µM in assay [5]; 1.76 µM in assay [6]. For the same molecule, the GI50 in assay [7] was 1.7 µM; in assay [10] it was 1.56 µM; in [9] it was 1.1 µM. Further, the TGI in [1] stood at 3.19 µM; in assay [2], 3.25 µM; in [3], 2.65 µM; in assay [4] it was 2.98 µM; in assay [5], 3.35 µM; in [6], 3.69 µM. Moreover, the TGI in assay [7] came out at 3.12 µM; in assay [10] it was 2.99 µM; in [9], 2.35 µM.

Consider `N#CC(C#N)=Cc1ccc(C(O)P(=O)(O)O)cc1` (centres undefined), for which the TGI in assay [1], in assay [2], in assay [3], in assay [4], in [5] and in [6] was greater than 100 µM each time. Moreover, the TGI in [7], in assay [8] and in assay [9] was greater than 100 µM in each case.

As for `Cc1ccc(C(=O)C(c2nc3n(c2O)C(=N)N=N3)c2nc3n(c2O)C(=N)N=N3)cc1` (centres undefined), the TGI in assay [1], in [2], in [3], in [4], in assay [5] and in assay [6] was greater than 100 µM each time. Besides, the TGI in assay [7], in assay [10] and in assay [9] was greater than 100 µM throughout.

For the molecule `O=C1CC(C(=O)O)Cc2c(Br)ccc(O)c21` (centres undefined), the TGI in assay [1], in assay [2], in assay [3], in assay [4], in assay [5] and in [6] was greater than 100 µM in each case. The TGI in assay [7], in [8] and in assay [9] was greater than 100 µM in each case.

Regarding `COC(=O)[C@H](Cc1ccccc1)NNC(=O)c1csc([C@@H](C[C@H](C(C)C)N(C)C(=O)[C@@H](NC(=O)[C@H]2CCCCN2C)C2CC2)OC(C)=O)n1`, the TGI in assay [1] was 25 µM and > 100 µM; in assay [2], 25 µM and > 100 µM; in assay [3], 25 µM and > 100 µM; in [4], 25 µM; in [5] it was 25 µM and > 100 µM; in assay [8], 25 µM and > 100 µM. In addition, the TGI in assay [9] was 25 µM and > 100 µM. Further, the GI50 in assay [4] was 0.0112 µM and 0.0025 µM; in [6] it was 0.00154 µM and 0.0144 µM; in assay [7], 0.00213 µM.

As to `COc1ccc(C2=NN(C=O)C(c3ccc(OS(=O)(=O)c4ccc(C)cc4)c(OC)c3)C2)cc1` (centres undefined), the GI50 is greater than 100 µM in assay [1]; 18.8 µM in assay [3]; 3.92 µM in [4]; 8.81 µM in assay [5]; 4.22 µM in [6]; 5.6 µM in assay [7]. Also, the GI50 was 3.33 µM in assay [10] and 3.39 µM in [9]. Further, the TGI in [1] was greater than 100 µM; in [3], greater than 100 µM; in assay [4], greater than 100 µM; in assay [5] it was greater than 100 µM; in assay [6] it was 90.4 µM; in [7], greater than 100 µM. In addition, the TGI in assay [10] was 25.1 µM; in assay [9], greater than 100 µM.

For `N#CC(C(=O)CCC(=O)Nc1ccc(Cl)cc1)c1ccc(Cl)cc1` (centres undefined), the TGI in [1], in assay [2], in assay [3], in assay [4], in assay [5] and in [6] was greater than 100 µM each time. The TGI in assay [7], in assay [8] and in [9] was greater than 100 µM each time.
